Experimental data reported in patent US9963496B2, “Stable glucagon analogues and use for treatment of hypoglycaemia” (Novo Nordisk A/S, priority 2014, dated 2018).
*1 amine or outer side, *2 acyl side, *3 side chain or, on linkers, in order; H or OH if unused. Where a SMILES comes first, the peptide text is derived from it. Side-chain parts run from the residue outwards. The star is where a group is joined. γGlu = O=C(O)[C@H](CCC(=O)[*:2])N[*:1]; Desaminohistidyl = O=C(CCc1c[nH]cn1)*

Experiments:
human glucagon receptor = target: T1, human glucagon receptor (Homo sapiens, UniProt P47871); assay: Assay (I)(b): glucagon receptor activation, CRE luciferase reporter gene assay in BHK cells; type: cell-based; details: BHK cells expressing human glucagon receptor and CRE luciferase, 3 h incubation; read-out: EC50 hGlucagonR
T1 construct: expressed in transfected cells; host or cells: BHK cells, clone BHK hGCGR A3*25; isolated membranes
Procedure, shortened: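 BHK570 cells stably expressing the human glucagon receptor and CRE-luciferase, 5×10 EE3 cells/well in DMEM with 2% ovalbumin and 0.2% Pluronic F-68. Compounds at final 1×10 EE-6 to 1×10 EE-13 M, 3 h at 37° C. Luminescence read; EC50 by four-parameter fit.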

physchem = type: physicochemical; details: pH 7.5
Procedure, shortened: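 Peptide at 250 μM in 10 mM HEPES pH 7.5 with 1 μM Thioflavin T, incubated at 37° C with 960 rpm orbital shaking. ThT fluorescence (ex 444/em 485 nm) read every 20 min; lag-time (t0−2τ) and kapp (1/τ) from curve fit. Recovery is post-assay supernatant peptide by RP-HPLC as % of initial.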

T1 sequence (P47871 26-477): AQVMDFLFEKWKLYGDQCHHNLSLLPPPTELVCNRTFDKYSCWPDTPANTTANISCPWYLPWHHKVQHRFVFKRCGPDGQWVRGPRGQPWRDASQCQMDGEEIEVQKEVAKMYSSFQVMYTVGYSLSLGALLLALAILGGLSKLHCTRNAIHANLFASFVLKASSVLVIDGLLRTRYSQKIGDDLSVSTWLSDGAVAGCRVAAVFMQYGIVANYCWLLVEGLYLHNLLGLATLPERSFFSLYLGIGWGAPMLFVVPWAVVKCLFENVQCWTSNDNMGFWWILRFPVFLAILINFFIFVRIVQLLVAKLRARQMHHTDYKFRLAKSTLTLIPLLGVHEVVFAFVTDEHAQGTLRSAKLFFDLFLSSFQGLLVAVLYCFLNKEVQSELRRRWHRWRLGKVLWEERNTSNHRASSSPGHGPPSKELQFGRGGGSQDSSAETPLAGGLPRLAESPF

CC(=O)N[C@@H](CCC(=O)N[C@@H](CCC(=O)N[C@@H](CCC(=O)N[C@@H](CCC(=O)NCCCC[C@H](NC(=O)[C@@H](NC(=O)[C@H](Cc1ccccc1)NC(=O)[C@H](CCC(=O)O)NC(=O)[C@H](CCC(N)=O)NC(=O)[C@H](C)NC(=O)[C@H](CCCNC(=N)N)NC(=O)[C@H](CCCNC(=N)N)NC(=O)[C@H](CO)NC(=O)[C@H](CCC(=O)O)NC(=O)[C@H](CC(C)C)NC(=O)[C@H](Cc1ccc(O)cc1)NC(=O)[C@H](CCCCN)NC(=O)[C@H](CO)NC(=O)[C@H](Cc1ccc(O)cc1)NC(=O)[C@H](CC(=O)O)NC(=O)[C@H](CO)NC(=O)[C@@H](NC(=O)[C@H](Cc1ccccc1)NC(=O)[C@@H](NC(=O)CNC(=O)[C@H](Cc1c[nH]cn1)NC(=O)[C@H](CO)NC(=O)CCc1c[nH]cn1)[C@@H](C)O)[C@@H](C)O)C(C)C)C(=O)N[C@@H](Cc1c[nH]c2ccccc12)C(=O)N[C@@H](CC(C)C)C(=O)N[C@@H](CC(C)C)C(=O)N[C@@H](CCC(=O)O)C(=O)N[C@H](C(=O)O)[C@@H](C)O)C(=O)O)C(=O)O)C(=O)O)C(=O)O [Example 22, N^ϵ24-[(4S)-4-[[(4S)-4-[[(4S)-4-[[(4S)-4-acetamido-4-carboxybutanoyl]amino]-4-carboxybutanoyl]amino]-4-carboxybutanoyl]amino]-4-carboxybutanoyl]-[Imp1, His3, Glu15, Glu21, Lys24, Leu27, Glu28]-Glucagon] (Desaminohistidyl-SHGTFTSDYSKYLESRRAQEFVK([γGlu-γGlu-γGlu-γGlu-Ac])WLLET-OH)
EC50 (human glucagon receptor): 0.017 nM | recovery at 250 μM (physchem): 100%
